According to US10155027B2, “Alpha-galactosidase A and 1-deoxygalactonojirimycin co-formulation for the treatment of fabry disease” (Amicus Therapeutics, Inc., priority 2012, dated 2018):
Counter-ions that a name gives are not always drawn. Like-named read-outs stand apart in the source and are kept apart here.

Tests used:
[1] = General toxicology NOAEL, rat; assay type: in vivo
[2] = General toxicology NOAEL, monkey; assay type: in vivo
[3] = Phase 1 single ascending dose 2-hour IV infusion PK in healthy subjects (Cohorts 1-3); assay type: in vivo, human; settings: for Vd / AUC(0-t) / AUC(0-inf) / Tmax / half-life / Cmax: human, plasma; for Vd: iv; for AUC(0-t): read-out: AUC0-t (geometric mean)
Method: (§1) Healthy volunteers received migalastat HCl (DGJ HCl) via the intravenous (IV) route of administration to evaluate safety, tolerability, and pharmacokinetics. Another study was performed to determine the absolute bioavailability of migalastat after an oral capsule dose as compared to an IV administered dose of migalastat HCl in healthy volunteers. The absolute bioavailability arm was added to determine the exposure ratio of a 150 mg oral dose relative to a 150 mg dose administered as an IV infusion.
(§2) Type of Study: This Phase 1 study was a single-center study consisting of 2 designs. Cohorts 1, 2, and 3 were performed according to a randomized, double-blind, placebo-controlled, single ascending dose (SAD) IV study design to evaluate the safety, tolerability, and PK of IV administered migalastat HCl or IV administered placebo in healthy subjects. Cohort 4 was an open-label, randomized two-way crossover arm designed to assess the absolute bioavailability of orally administered migalastat HCl relative to IV administered migalastat HCl in healthy subjects.
Cohorts 1, 2, 3: Subjects in Cohorts 1, 2, and 3 received IV administered single ascending doses of migalastat HCl. Seven subjects were enrolled into each cohort (5 subjects randomized to migalastat HCl and 2 subjects randomized to placebo). Dosing of Cohorts 1, 2, and 3 was staggered to allow for safety and tolerability review before proceeding with the next group. Therefore, Cohorts 1, 2, and 3 were each divided into 2 sub-groups: Group A (2 subjects randomized to migalastat HCl and 1 subject randomized to placebo) and Group B (3 subjects randomized to migalastat HCl and 1 subject randomized to placebo). Subjects in Group B were dosed the day following completion of Group A dosing. Except for Cohort 3B, which was dosed 31 days after Cohort 3A because an interim PK review was performed on emerged data from Cohort 3A. Additionally, initiation of infusion was staggered by 60 minutes for Group A subjects, and by 30 minutes for Group B subjects (see FIG. 12).
Subjects enrolled in Cohorts 1, 2, and 3 were randomized to receive one of the following doses of migalastat HCl (n=5) or placebo (n=2): […]

[4] = Phase 1 crossover absolute bioavailability, 150 mg oral capsule vs 150 mg IV infusion (Cohort 4); assay type: in vivo, human; settings: for Vd: iv, 150 mg; for Cmax: read-out: Cmax (geometric mean); for AUC(0-t): read-out: AUC0-t (geometric mean); for AUC(0-inf): read-out: AUC0-∞ (geometric mean); for Tmax: read-out: tmax (median); for half-life: read-out: t½ (arithmetic mean) (converted)
Method: as §1, §2
Cohort 4 consisted of 2 sequential treatment periods with a washout period of 7 days between study drug administrations (FIG. 13). Cohort 4 enrolled 10 subjects all of whom received active drug (no placebo was administered). Cohort 4 was randomized such that 5 subjects received the oral formulation and 5 subjects received the IV formulation during Period 1, followed by the alternate formulation during Period 2. • * During Period 1, all Day −1 through Day 3 assessments were performed. ** The washout period was 7 days. *** During Period 2, subjects repeated all Day −1 through Day 3 assessments.
Cohort 4: Period 1: 150 mg migalastat HCl capsule (n=5) or 150 mg migalastat HCl via IV infusion (n=5). Period 2: 150 mg migalastat HCl capsule (n=5) or 150 mg migalastat HCl via IV infusion (n=5)
The migalastat HCl used for infusion was 50 mg/ml and the placebo was 0.9% sodium chloride. The oral migalastat HCl was administered as a 150 mg gelatin […].

[5] = Phase 2a study of oral migalastat HCl co-administered with agalsidase in Fabry patients; assay type: in vivo, human; settings: 23 Fabry patients; single oral 150 mg with 0.2, 0.5, and 1.0 mg/kg agalsidase
[6] = predicted human exposure at 0.3 mg/kg IV
[7] = predicted human exposure at 10.0 mg/kg IV
[8] = 1.0 mg/kg vs 0.3 mg/kg, theoretical 3.33
[9] = 10 mg/kg vs 0.3 mg/kg, theoretical 33.3

Structure (SMILES): OC[C@H]1NC[C@H](O)[C@@H](O)[C@H]1O [migalastat HCl, (2R,3S,4R,5S)-2-(hydroxymethyl) piperdine-3,4,5-triol]
- Fold Cover to NOAEL AUC, Rat [1, 6]: 134
- Fold Cover to NOAEL Cmax, Rat [1, 6]: 65
- Fold Cover to NOAEL AUC, Rat [1, 7]: 4.05
- Fold Cover to NOAEL Cmax, Rat [1, 7]: 1.93
- AUC ([1]; rat, in vivo, 1500 mg/kg/day): 24900 ng·h/mL
- Cmax ([1]; rat, in vivo, 1500 mg/kg/day): 23400 ng/mL
- NOAEL ([1]; rat, in vivo, general toxicology): 1500 mg/kg/day
- AUC ([2]; monkey, in vivo, 500 mg/kg/day): 30600 ng·h/mL
- Cmax ([2]; monkey, in vivo, 500 mg/kg/day): 24500 ng/mL
- NOAEL ([2]; monkey, in vivo, general toxicology): 500 mg/kg/day
- Fold Cover to NOAEL AUC, Monkey [2, 6]: 165
- Fold Cover to NOAEL Cmax, Monkey [2, 6]: 68
- Fold Cover to NOAEL AUC, Monkey [2, 7]: 4.98
- Fold Cover to NOAEL Cmax, Monkey [2, 7]: 2.02
- CLT (arithmetic mean) ([3]; 0.3 mg/kg IV): 6.59 L/h
- CLT (arithmetic mean) ([3]; 1.0 mg/kg IV): 7.68 L/h
- Ratio Test/Reference, AUC0-t [3, 8]: 3.01
- Ratio Test/Reference, AUC0-∞ [3, 8]: 2.99
- Ratio Test/Reference, Cmax [3, 8]: 2.89
- CLT (arithmetic mean) ([3]; 10 mg/kg IV): 7.40 L/h
- Ratio Test/Reference, AUC0-t [3, 9]: 35.5
- Ratio Test/Reference, AUC0-∞ [3, 9]: 35.2
- Ratio Test/Reference, Cmax [3, 9]: 33.9
- dose proportionality of plasma exposure parameters ([3]; 0.3 to 10 mg/kg single ascending IV dose range): appeared to be dose proportional
- Vd ([3]; 0.3 mg/kg, 0.3 mg/kg IV, read-out: Vss (arithmetic mean)): 17.9 L
- Vd ([3]; 0.3 mg/kg, 0.3 mg/kg IV, read-out: Vz (arithmetic mean)): 19.9 L
- Vd ([3]; 1 mg/kg, 1.0 mg/kg IV, read-out: Vss (arithmetic mean)): 24.2 L
- Vd ([3]; 1 mg/kg, 1.0 mg/kg IV, read-out: Vz (arithmetic mean)): 35 L
- Vd ([3]; 10 mg/kg, 10 mg/kg IV, read-out: Vss (arithmetic mean)): 27.2 L
- Vd ([3]; 10 mg/kg, 10 mg/kg IV, read-out: Vz (arithmetic mean)): 107 L
- Vd ([3]; 0.3 to 10 mg/kg IV, read-out: Vss, range over doses): 17.9 to 27.2 L
- Vd ([3]; 0.3 to 10 mg/kg IV, read-out: arithmetic mean Vz, range over doses): 19.9 to 107 L
- AUC(0-t) ([3]; 0.3 mg/kg IV): 2280 ng·h/mL
- AUC(0-inf) ([3]; 0.3 mg/kg IV, read-out: AUC0-∞ (geometric mean)): 2320 ng·h/mL
- Tmax ([3]; 0.3 mg/kg IV, read-out: tmax (median)): 1.93 h
- half-life ([3]; 0.3 mg/kg IV, read-out: t½ (arithmetic mean) (converted)): 2.09 h
- AUC(0-t) ([3]; 1.0 mg/kg IV): 6860 ng·h/mL
- AUC(0-inf) ([3]; 1.0 mg/kg IV, read-out: AUC0-∞ (geometric mean)): 6920 ng·h/mL
- Tmax ([3]; 1.0 mg/kg IV, read-out: tmax (median)): 1.93 h
- half-life ([3]; 1.0 mg/kg IV, read-out: t½ (arithmetic mean) (converted)): 3.21 h
- AUC(0-t) ([3]; 10 mg/kg IV): 81100 ng·h/mL
- AUC(0-inf) ([3]; 10 mg/kg IV, read-out: AUC0-∞ (geometric mean)): 81400 ng·h/mL
- Tmax ([3]; 10 mg/kg IV, read-out: tmax (median)): 1.93 h
- half-life ([3]; 10 mg/kg IV, read-out: t½ (arithmetic mean) (converted)): 10 h
- half-life ([3]; 0.3 to 10 mg/kg IV, read-out: arithmetic mean apparent terminal t½, range over doses): 2.09 to 10 h
- AUC(0-inf) ([3]; 0.3 to 10 mg/kg IV, read-out: geometric mean AUC0-∞, range over doses): 2320 to 81400 ng·h/mL
- Cmax ([3]; 0.3 to 10 mg/kg IV, read-out: geometric mean Cmax, range over doses): 609 to 20700 ng/mL
- Tmax ([3]; dose levels of 0.3, 1.0, and 10 mg/kg IV, post start of infusion, read-out: median tmax): 1.93 h
- Cmax ([3]; 0.3 mg/kg IV, 2-hour infusion, read-out: Cmax (geometric mean)): 609 ng/mL
- Cmax ([3]; 1.0 mg/kg IV, 2-hour infusion, read-out: Cmax (geometric mean)): 1760 ng/mL
- Cmax ([3]; 10 mg/kg IV, 2-hour infusion, read-out: Cmax (geometric mean)): 20700 ng/mL
- CLT (arithmetic mean) ([4]; 150 mg IV): 9.34 L/h
- geometric mean AUC0-t and AUC0-∞, IV relative to oral ([4]; 150 mg IV vs 150 mg oral): approximately 1.3 fold
- geometric mean Cmax, IV relative to oral ([4]; 150 mg IV vs 150 mg oral): approximately 1.9 fold
- maximum arithmetic mean plasma concentrations, IV relative to oral ([4]; 150 mg IV vs 150 mg oral): approximately 2 fold
- CLT/F (arithmetic mean) ([4]; 150 mg oral): 12.8 L/h
- absolute oral bioavailability based on AUC0-t (Percentage Test/Reference) ([4]; 150 mg oral vs 150 mg IV): 74.3%
- absolute oral bioavailability based on AUC0-∞ (Percentage Test/Reference) ([4]; 150 mg oral vs 150 mg IV): 74.6%
- Vd ([4]; human, plasma, 150 mg IV, read-out: Vss (arithmetic mean)): 30.2 L
- Vd ([4]; human, plasma, 150 mg IV, read-out: Vz (arithmetic mean)): 59.4 L
- Cmax ([4]; human, plasma, 150 mg IV, 2-hour infusion): 3380 ng/mL
- AUC(0-t) ([4]; human, plasma, 150 mg IV): 13200 ng·h/mL
- AUC(0-inf) ([4]; human, plasma, 150 mg IV): 13300 ng·h/mL
- Tmax ([4]; human, plasma, 150 mg IV): 1.93 h
- half-life ([4]; human, plasma, 150 mg IV): 4.54 h
- AUC(0-t) ([4]; human, plasma, 150 mg oral): 9780 ng·h/mL
- AUC(0-inf) ([4]; human, plasma, 150 mg oral): 9880 ng·h/mL
- Cmax ([4]; human, plasma, 150 mg oral): 1790 ng/mL
- Vd/F ([4]; human, plasma, 150 mg oral, read-out: Vz/F (arithmetic mean)): 123 L
- Tmax ([4]; human, plasma, 150 mg oral): 2.75 h
- half-life ([4]; human, plasma, 150 mg oral): 7.28 h
- tissue uptake of active α-Gal A into skin [5]: improved tissue uptake of active α-Gal A into skin
- tolerability (oral 150 mg capsule, healthy volunteers and Fabry patients): well tolerated
- linearity of exposure (oral administrations): linear exposures to 1250 mg
- tolerability (single dose administrations up to 2000 mg, healthy volunteers, Phase 1): well tolerated
